These results are taken from paper PMC7076710, “Synthesis, Identification, and Structure–Activity Relationship Analysis of GATA4 and NKX2-5 Protein–Protein Interaction Modulators” (Journal of Medicinal Chemistry, 2019).

Format in all cases: cell-based
For series [1], the target named is T1, NKX2-5 transcriptional activity (Mus musculus, UniProt P42582).
T1 construct: expressed in transfected cells; host or cells: COS-1
Briefly: NKX2-5 luciferase reporter assay (3xNKE reporter, COS-1 cells). The conditions noted are these: for activity at 3 µM: read-out: NKX.3µM; for activity at 10 µM: read-out: NKX.10µM. How it is done:
(§1) To screen compounds for the GATA4–NKX2-5 interaction, we have developed a luciferase reporter assay based on their property to activate gene transcription synergistically through the NKX2-5 binding site on DNA.[28] In this assay, we transfected mammalian COS-1 cells with protein expression vectors for GATA4 and NKX2-5 proteins together with artificial luciferase reporter vector containing three high affinity binding sites for NKX2-5 (NKE). […] All 257 compounds were tested in two concentrations, 3 and 10 μM. Compounds either inhibited, enhanced, or had no effect on the GATA4–NKX2-5 transcriptional synergy. To investigate the selectivity of the active compounds, we tested their effects on NKX2-5 transcriptional activity by using the same luciferase reporter vector as in transcriptional synergy assay with three NKE sites (Figure 3B). Furthermore, we used GATA luciferase reporter assay to examine if compounds have an effect on GATA4 transcriptional activity. In this assay, we cotransfected the cells with a GATA4 protein expression vector and a reporter vector with tandem GATA4 binding sites (Figure 3C). Previously we have reported that compound 1 inhibited the GATA4–NKX2-5 transcriptional synergy at micromolar concentrations (IC50 = 3 μM).[29]
(§2) The plasmids expressing mouse GATA4 protein, pMT2-GATA4, and empty pMT2 were gifts from D. B. Wilson (Department of Pediatrics, St. Louis Children’s Hospital, St. Louis, MO).[44] The plasmids expressing mouse NKX2-5 protein, pMT2-NKX2-5, have been described earlier.[28] The luciferase reporter plasmid used in GATA4–NKX2-5 transcriptional synergy assay and NKX transcriptional assay, pGL3-3xHA, contains three high affinity binding sites for NKX2-5.[28] The luciferase reporter plasmid used in GATA transcriptional assay, NP-112, contains tandem GATA-sites and minimal promoter of rat brain natriuretic peptide (BNP) gene.[45] The pGL3-BNP luciferase reporter containing −534/+4 bp rat BNP proximal promoter described previously was used in hypertrophy assay.[46]
(§3) The primary screening assay of compounds’ effect on GATA4–NKX2-5 transcriptional synergy and COS-1 cell culturing has been described earlier.[33] […] (Kinnunen et al., unpublished observation). Briefly, COS-1 cells were seeded at 14 000 cells/well in Isoplate-96 microplates (PerkinElmer, Turku, Finland) and grown overnight. The cells were transfected with the luciferase reporter plasmid pGL3-3xHA 100 ng/well and equal amounts of expression plasmids pMT2-GATA4 and pMT2-NKX2-5 total 50 ng/well. To verify the synergistic effect, the cells were transfected with pMT2-GATA4 or pMT2-NKX2-5 25 ng/well, and the total DNA concentration was adjusted to 50 ng/well with empty pMT2 plasmid. In NKX2-5 and GATA4 luciferase reporter assays, the cells were transfected with reporter plasmid pGL3-3xHA or NP-112 (100 ng/well) and expression plasmid pMT2-NKX2-5 or pMT2-GATA4 (25 ng/well). The ratio of DNA/transfection reagent (Fugene 6, Promega) was 1:3 in all assays. The transfections were performed in serum and antibiotics free media for 6 h. The cells were treated with compounds or vehicle (0.1% DMSO) for 24 h, and the luminescence was measured using neolite Reporter Gene Assay System (PerkinElmer, Turku, Finland) and Victor2 plate reader (PerkinElmer, Turku, Finland).
(§4) Raw luciferase data were analyzed in Excel, and clear outliers were removed from triplicates by using the Grubb’s test. Data analysis was performed using R.[49] The luciferase data were first normalized on the basis of the combined mean value of controls. For data visualization and creation of figures, the following R packages were used: ggplot2, cowplot, RColorBrewer, and pheatmap. The heatmaps of the toxicity data were produced with GraphPad Prism 7.00 (GraphPad Software, La Jolla, CA). Statistical significance of luciferase reporter assay data was evaluated by randomized block analysis of variance followed by Dunnett’s post hoc test. […]

The target of series [2] is T2, GATA4–NKX2-5 transcriptional synergy (Mus musculus, UniProt P42582+Q08369).
T2 construct: expressed in transfected cells; host or cells: COS-1
T2 sequence (Q08369 whole entry): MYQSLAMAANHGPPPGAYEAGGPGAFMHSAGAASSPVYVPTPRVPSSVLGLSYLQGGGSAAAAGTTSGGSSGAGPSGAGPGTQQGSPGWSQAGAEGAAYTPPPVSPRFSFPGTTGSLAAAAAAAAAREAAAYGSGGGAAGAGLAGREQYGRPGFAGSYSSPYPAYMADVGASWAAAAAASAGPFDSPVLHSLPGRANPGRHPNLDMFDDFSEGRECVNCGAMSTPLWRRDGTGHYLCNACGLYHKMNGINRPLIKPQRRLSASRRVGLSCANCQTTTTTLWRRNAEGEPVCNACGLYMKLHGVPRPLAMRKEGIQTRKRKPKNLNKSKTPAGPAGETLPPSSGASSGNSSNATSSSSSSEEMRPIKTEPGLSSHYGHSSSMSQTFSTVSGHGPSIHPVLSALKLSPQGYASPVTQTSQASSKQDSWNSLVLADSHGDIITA
T2 sequence (P42582 whole entry): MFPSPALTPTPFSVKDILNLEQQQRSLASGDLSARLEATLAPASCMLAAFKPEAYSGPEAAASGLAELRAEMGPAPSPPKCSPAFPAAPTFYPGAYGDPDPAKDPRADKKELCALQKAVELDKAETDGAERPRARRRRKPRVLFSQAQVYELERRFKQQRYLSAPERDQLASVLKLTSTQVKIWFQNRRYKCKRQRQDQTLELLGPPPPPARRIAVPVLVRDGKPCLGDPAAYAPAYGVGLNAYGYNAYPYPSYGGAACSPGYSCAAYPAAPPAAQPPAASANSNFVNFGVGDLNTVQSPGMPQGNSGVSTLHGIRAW
Briefly: GATA4–NKX2-5 transcriptional synergy luciferase reporter assay (3xNKE reporter, COS-1 cells). (Reporter assays use an easily measured gene product as a stand-in for the process of interest.)

Series [3] concerns the target T3, GATA4 transcriptional activity (Mus musculus, UniProt Q08369).
T3 construct: expressed in transfected cells; host or cells: COS-1
Description: GATA4 luciferase reporter assay (tandem GATA-site reporter, COS-1 cells). As to the method: as §1, §2, §3, §4

Series [4] concerns COS-1 cells. Description: MTT assay (cell viability). The text has this: (§5) To investigate the toxicity as a potential cause of decreased or increased activity in luciferase reporter gene assays, we tested a set of 40 active compounds in the COS-1 cell line used for the luciferase assays. Concentration-dependent toxic effects were investigated using the lactate dehydrogenase (LDH) assay to detect necrosis and the 3-(4,5-dimethylthiazol-2-yl)-2,5-diphenyltetrazolium bromide (MTT) assay as a measure of cell viability. […] For the data analysis, compounds were classified as toxic (Figures 5 and 7) if they induced a >10% decrease in cell viability in the MTT assay at the concentration of 10 μM. The most toxic compounds (35a, 35d, 54, 58, and 63–65) in the MTT assay all contained a phenyl substituent in the southern part ring, while the ortho-nitrophenyl-derivative 39g and the phenyl-substituted thiophene 47t were nontoxic. Higher flexibility in the central parts of the ethers (35a, 35d) and N-acylated amines (58, 64) might contribute to their toxicity, because less rigid compounds are more likely to have affinity to various biological targets. Such interactions can cause toxicity. To confirm and validate the results from MTT assays, we tested three nontoxic (2, 47s, and 72) and three toxic (1, 35a, and 58) compounds in a cell viability assay measuring intracellular ATP content.
(§6) Figure 5 Effects of selected compounds on COS-1 cell viability. (A) Compound-induced necrosis was quantified with the LDH assay after a 24-h compound exposure. The data are presented as cytotoxicity percentage (% of maximal LDH release). (B) Cell viability was analyzed with the MTT assay after a 24-h compound exposure. (A,B) The data are means from 2–3 independent experiments with 3 replicate wells in each and are presented as % of control (vehicle-treated cells). The compounds have been grouped on the basis of the structure of the central part: a, amide; b, ether; c, N-acylated amine; d, amine; and e, imine. (C) The effects of selected compounds on cell viability as determined by ATP content after a 24-h compound exposure. The data are mean + SEM from three independent experiments and are presented as % of vehicle-treated cells.
(§7) For toxicity screening, COS-1 cells were cultured in DMEM (Sigma-Aldrich, Steinheim, Germany) supplemented with 10% fetal bovine serum, 100 U/mL penicillin, and 100 μg/mL streptomycin (all from Gibco, Thermo Scientific) at 37 °C with 5% CO2. The cells were plated on 96-well plates at 10 000 cells/well and exposed to test compounds at a concentration range of 1–30 μM on the following day. After a 24-h compound treatment, lactate dehydrogenase (LDH) and 3-(4,5-dimethylthiazol-2-yl)-2,5-diphenyltetrazolium bromide (MTT) assays were carried out as described previously.[48] Briefly, LDH activity was determined from 50 μL samples of cell culture medium, to which 50 μL of substrate solution [1.3 mM β-nicotinamide-adenine dinucleotide, 660 μM iodonitrotetrazolium, 54 mM L(+)-lactic acid, and 280 μM phenazine methosulfate in 0.2 M Tris-HCl, pH 8.2, all from Sigma-Aldrich] was added, and the plate was incubated for 30 min at room temperature. The reaction was stopped with acetic acid (final concentration 333 mM), and absorbance was measured at 490 nm. The absorbance values of the samples were normalized to maximal LDH release and spontaneous LDH release determined on the same plate. Mitochondrial metabolic activity was quantified by incubating the cells with 0.5 mg/mL MTT (from Sigma-Aldrich) for 2 h at 37 °C with 5% CO2, whereafter culture medium was removed and formazan crystals were dissolved in DMSO. The absorbance was measured at 550 nm, and absorbance at 650 nm was subtracted as background.
(In general: Formazan colour is commonly taken as a measure of viable cells.)

Series [5] has as its system COS-1 cells. Briefly: LDH assay (necrosis).
Excerpt: as §5, §6, §7

Setting [6] is: COS-1, 3 µM, luciferase reporter activity, % of control.
The mark [7] stands for this setting: COS-1, 10 µM, luciferase reporter activity, % of control.
Setting [8] is: COS-1, compound 3 µM, luciferase reporter activity, spread in separate STDEV column.
Where [9] appears, read: 3 µM compound, GATA4–NKX2-5 transcriptional synergy reporter, COS-1 cells.
Where [10] appears, read: COS-1, GATA4-NKX2-5 transcriptional synergy luciferase reporter assay, compound at 3 µM.
The mark [11] stands for this setting: COS-1, GATA4-NKX2-5 transcriptional synergy luciferase reporter assay, compound at 10 µM.

Where two headings read alike, the source gives them in different places.

T1 sequence (P42582 whole entry): as above
T3 sequence (Q08369 whole entry): as the sequence (Q08369 whole entry) above

Regarding `Cc1onc(-c2ccccc2)c1C(=O)Nc1ccc(-c2ccccc2)cc1` [Compound 4f], the values for the activity at 3 µM in series [1] (setting [6]), in series [2] (setting [6]) and in series [3] (setting [6]) were 91%, 72.7% and 102%, respectively. For the same molecule, the activity at 10 µM in series [2] (setting [7]) was 112%; in series [3] (setting [7]) it was 114%.
`CCN(CC)c1ccc(N(C)C(=O)c2c(-c3ccccc3)noc2C)cc1` [Compound 25a]: in series [1] (setting [7]), the activity at 10 µM turned out to be 101%. Besides, the activity at 3 µM in series [2] (setting [6]) stood at 78.1%.
On to `CCN(CC)c1ccc(NC(=O)c2c(-c3cccc([N+](=O)[O-])c3)noc2C)cc1` [Compound 39g], for which, in the series on COS-1 cells [4] (1 µM, cell viability), the MTT.1µM was determined as 105.86. This molecule displayed an MTT.3µM with COS-1 cells [4] (3 µM, cell viability) of 108.44. Also, the MTT.10µM in the series with COS-1 cells [4] (10 µM, cell viability) is on record as 106.4. Further, the MTT.30µM in the series on COS-1 cells [4] (30 µM, cell viability) came out at 104.14. For the same molecule, the “toxicity class in the MTT assay” value with COS-1 cells [4] (24-h exposure, classified at 10 μM) is “nontoxic (nontoxic compounds (cell viability >90%))”. In addition, the LDH.1µM in the series with COS-1 cells [5] (1 µM) amounted to 1.8. In addition, in the series with COS-1 cells [5] (3 µM), the LDH.3µM worked out at 1.19. The same molecule returned an LDH.10µM in the series on COS-1 cells [5] (10 µM) of -0.41. For the same molecule, in the series with COS-1 cells [5] (30 µM), the LDH.30µM is -0.68. Besides, the activity at 3 µM in series [2] (COS-1, 3 µM, luciferase reporter activity relative to control) was 93.4%.
In the case of `CCN(CC)c1ccc(NC(=O)c2cn(C)nc2-c2cc(C)on2)cc1` [Compound 47f], the activity at 3 µM in series [1] (setting [8]) was determined as 108%; in series [2] (setting [8]) it was 110%.
With `CCN(CC)c1ccc(NC(=O)c2cn(C)cc2-c2cc(C)on2)cc1` [Compound 47m], the activity at 3 µM in series [1] (setting [8]) and in series [2] (setting [8]) was 116% each time. The activity at 10 µM in series [1] (COS-1, compound 10 µM, luciferase reporter activity, spread in separate STDEV column) is 114%.
For `CCN(CC)c1ccc(NC(=O)c2c(-n3cccc3)sc(C)c2C)cc1` [Compound 56], the activity at 3 µM in series [1] (3 µM compound, NKX2-5 luciferase reporter, COS-1 cells) stood at 102%; in series [2] (setting [9]), 93.8%.
Take `Cc1cc(-c2onc(C)c2C(=O)Nc2ccc3oc(-c4ccccc4)cc(=O)c3c2)no1` [Compound 73]: the activity at 3 µM in series [2] (setting [9]) was found to be 107%; in series [3] (3 µM compound, GATA4 luciferase reporter, COS-1 cells), 127%. Besides, the activity at 10 µM in series [2] (10 µM compound, GATA4–NKX2-5 transcriptional synergy reporter, COS-1 cells) worked out at 114%; in series [3] (10 µM compound, GATA4 luciferase reporter, COS-1 cells), 123%.
On to `O=C(Nc1ccc(N2CCCS2(=O)=O)cc1)c1c[nH]cc1-c1ccc(Cl)s1` [SI127], for which, in series [2] (setting [10]), the activity at 3 µM came out at 96.7%. Besides, the activity at 10 µM in series [2] (setting [11]) was determined as 82.9%.
Consider `O=C(Nc1cc(-c2cccs2)n[nH]1)c1ccccc1` [SI128], for which, in series [2] (setting [10]), the activity at 3 µM amounted to 110%. For the same molecule, in series [2] (setting [11]), the activity at 10 µM was 69.3%.
For `CN(C)c1c(F)cc(NC(=O)c2cc(-c3ccco3)on2)cc1F` [SI129], the activity at 3 µM in series [2] (setting [10]) came to 94.3%. For the same molecule, the activity at 10 µM in series [2] (setting [11]) is 115%.
For `O=C(Nc1cccc(N2CCCC2=O)c1)c1cc(-c2ccccc2)[nH]n1` [SI130] the same measures were 102% and 106%.
In the case of `CCN(CC)c1ccc(NC(=O)c2c(-c3cccc(Br)c3)noc2C)c(C)c1` [SI131], in series [2] (setting [10]), the activity at 3 µM was 85.4%. In series [2] (setting [11]), the activity at 10 µM is 88.3%.
As to `CCN(CC)c1ccc(NC(=O)c2c(-c3ccccc3)noc2C)c(C)c1` [SI132], the activity at 3 µM in series [2] (setting [10]) turned out to be 85.4%. Moreover, the activity at 10 µM in series [2] (setting [11]) came to 61.6%.
For `Cc1ccc(NC(=O)c2c(-c3cc(C)on3)noc2C)cc1` [SI133] the same measures were 88.6% and 86.3%.
In the case of `Cc1cc(-c2noc(C)c2C(=O)Nc2ccc(Cl)cc2)no1` [SI134], the activity at 3 µM in series [2] (setting [10]) came to 82.9%. In addition, the activity at 10 µM in series [2] (setting [11]) stood at 87.7%.
With `Cc1cc(-c2noc(C)c2C(=O)Nc2ccc(C(F)(F)F)cc2)no1` [SI135], the activity at 3 µM in series [2] (setting [10]) came to 98.8%. Further, the activity at 10 µM in series [2] (setting [11]) came out at 101%.
For `Cc1cc(-c2noc(C)c2C(=O)Nc2cccc(Cl)c2)no1` [SI136], the activity at 3 µM in series [2] (setting [10]) is 83%. For the same molecule, in series [2] (setting [11]), the activity at 10 µM stood at 82.5%.
